# Patent US6140504A, “Substituted intermediate compounds for the preparation of n-[(aminoiminomethyl or aminomethyl)phenyl]propyl amides” (Aventis Pharmaceuticals Products Inc., priority 2000, dated 2000)
# Experiments:
# Type in all cases: biochemical
# Details in all cases: apparent Ki via Cheng-Prusoff from IC50; room temperature, 1 nM enzyme
# factor Xa = factor Xa (Homo sapiens, UniProt P00742); experiment: Enzyme assay, inhibition of factor Xa using purified enzyme (chromogenic peptide-p-nitroanilide substrate)
# Chain of factor Xa (P00742 235-488 limits assumed): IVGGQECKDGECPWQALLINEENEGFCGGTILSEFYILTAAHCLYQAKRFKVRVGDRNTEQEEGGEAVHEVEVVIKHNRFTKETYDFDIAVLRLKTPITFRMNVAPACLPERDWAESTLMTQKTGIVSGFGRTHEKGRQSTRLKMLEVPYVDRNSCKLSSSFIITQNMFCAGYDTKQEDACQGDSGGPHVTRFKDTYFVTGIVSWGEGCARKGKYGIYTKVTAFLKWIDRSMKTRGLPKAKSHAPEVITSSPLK
# Chain of factor Xa (P00742 41-179 partner limits assumed): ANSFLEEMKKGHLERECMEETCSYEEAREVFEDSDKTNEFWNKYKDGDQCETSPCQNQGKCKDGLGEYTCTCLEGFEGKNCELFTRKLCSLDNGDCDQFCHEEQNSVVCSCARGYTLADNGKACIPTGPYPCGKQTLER
# Experimental: (§1) All enzyme as says are carried out at room temperature in 96-well microtiter plates using a final enzyme concentration of 1 nM. The concentrations of factor Xa and thrombin are determined by active site titration and the concentrations of all other enzymes are based on the protein concentration supplied by the manufacturer. Compounds according to the invention are dissolved in DMSO, diluted with their respective buffers and assayed at a maximal final DMSO concentration of 1.25%. Compound dilutions are added to wells containing buffer and enzyme and pre-equilibrated for between 5 and 30 minutes. The enzyme reactions are initiated by the addition of substrate and the color developed from the hydrolysis of the peptide-p-nitroanilide substrates is monitored continuously for 5 minutes at 405 nm on a Vmax microplate reader (Molecular Devices). Under these conditions, less than 10% of the substrate is utilized in all assays. […] The apparent Ki values are then determined according to the Cheng-Prusoff equation (IC50=Ki[1+[S]J/Km]) assuming competitive inhibition kinetics.
# thrombin = thrombin (Homo sapiens, UniProt P00734); experiment: Enzyme assay, inhibition of thrombin using purified enzyme (chromogenic peptide-p-nitroanilide substrate)
# Experimental: as §1, with “Compound dilutions are added to wells containing buffer and enzyme and pre-equilibrated for between 5 and 30 minutes.” left out
# trypsin = target: T1, trypsin (Bos taurus, UniProt P00760); experiment: Enzyme assay, inhibition of trypsin using purified enzyme (chromogenic peptide-p-nitroanilide substrate)
# T1 construct: factor Xa, thromb in, trypsin; purchased
# T1 sequence (P00760 24-246): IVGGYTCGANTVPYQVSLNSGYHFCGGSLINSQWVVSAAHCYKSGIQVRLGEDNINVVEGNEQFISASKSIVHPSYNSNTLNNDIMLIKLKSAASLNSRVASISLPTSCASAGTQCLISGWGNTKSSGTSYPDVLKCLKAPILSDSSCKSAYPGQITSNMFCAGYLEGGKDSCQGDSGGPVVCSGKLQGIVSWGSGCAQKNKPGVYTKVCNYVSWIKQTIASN
# Experimental: as §1
Structure (SMILES),Ki (factor Xa) [nM],Ki (thrombin) [nM],Ki (trypsin) [nM]
CC(=O)OCC(Cc1cccc(C(=N)N)c1)C(/C=C/c1ccccc1)NC(=O)c1ccc(-c2ccccc2)cc1 (stereo not drawn) [Compound 45],94,477,129
COc1ccc(-c2ccc(C(=O)NC(CCc3ccccc3)C(COC(C)=O)Cc3cccc(C(=N)N)c3)cc2)cc1OC (stereo not drawn) [Compound 167],19,1230,46
CN(C)Cc1cccc(-c2ccc(C(=O)NC(Cc3ccccc3)C(CO)Cc3cccc(C(=N)N)c3)cc2)c1 (stereo not drawn) [Compound 184],27,2710,1720
